Assay results published in ChEMBL document CHEMBL1201862, “PubChem BioAssay data set” (2004).
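These data come from cells grown in 96-well plates and exposed to compound for 48 hours at five concentrations. GI50 marks 50% less growth.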 Calls of active or inactive are those of the source. No stated cut-off is given here; in the data, active = GI50 up to about 1.1 µM and inactive = higher.

Tests used:
Test in all cases: growth of human tumour cells (NCI), 48 h
HCT-15 = system: HCT-15
NCI-H226 = system: NCI-H226
SF-539 = system: SF-539
IGROV-1 = system: IGROV-1
MOLT-4 = system: MOLT-4
NCI-H522 = system: NCI-H522
COLO 205 = system: COLO 205
CAKI-1 = system: CAKI-1
U-251 = system: U-251
NCI/ADR-RES = system: NCI/ADR-RES
786-0 = system: 786-0
SW-620 = system: SW-620
CCRF-CEM = system: CCRF-CEM
UACC-257 = system: UACC-257
SF-268 = system: SF-268
MDA-MB-435 = system: MDA-MB-435
MCF7 = system: MCF7
HOP-62 = system: HOP-62
NCI-H23 = system: NCI-H23
SF-295 = system: SF-295

Measured: GI50

Cc1c2cnccc2c(C)c2c1c1ccccc1n2CCOC(=O)c1ccccc1
inactive: NCI-H226 12.6 µM | SF-539 6.21 µM | IGROV-1 9.44 µM | MOLT-4 5.25 µM | NCI-H522 11.4 µM | COLO 205 7.8 µM | CAKI-1 6.24 µM | U-251 15.7 µM | NCI/ADR-RES 8.49 µM | 786-0 11.5 µM | SW-620 6.31 µM | CCRF-CEM 7.52 µM | UACC-257 12.4 µM | SF-268 11.4 µM | MDA-MB-435 14.4 µM | MCF7 9.64 µM | HOP-62 13.2 µM | NCI-H23 15.7 µM | SF-295 11 µM
11.9 µM: HCT-15

S=c1[nH]nc(Cn2c3ccc(Br)cc3c3nc4ccccc4nc32)o1
inactive: NCI-H226 > 77.3 µM | SF-539 30.4 µM | IGROV-1 31.9 µM | MOLT-4 27.1 µM | NCI-H522 20.2 µM | COLO 205 46.9 µM | CAKI-1 41.6 µM | NCI/ADR-RES 74.5 µM | 786-0 34.3 µM | SW-620 18.7 µM | CCRF-CEM 24.7 µM | UACC-257 > 58.6 µM | SF-268 > 60.5 µM | MDA-MB-435 16.7 µM | MCF7 39 µM | HOP-62 29.9 µM | NCI-H23 25.2 µM | SF-295 42.9 µM
active: U-251 0.944 µM
1.06 µM: HCT-15

CCC(=O)OCOc1ccc(/C=C2\CCC(CN(C)C)C2=O)cc1 (stereo not given)
inactive: NCI-H226 13.8 µM | SF-539 8.41 µM | IGROV-1 6.44 µM | MOLT-4 2.51 µM | NCI-H522 1.93 µM | COLO 205 3.78 µM | CAKI-1 4.67 µM | U-251 11.1 µM | NCI/ADR-RES 2.96 µM | 786-0 2.45 µM | SW-620 2.32 µM | CCRF-CEM 1.61 µM | UACC-257 3.39 µM | SF-268 8.59 µM | MDA-MB-435 3.34 µM | MCF7 3.03 µM | HOP-62 15.2 µM | NCI-H23 5.42 µM | SF-295 8.85 µM
3.13 µM: HCT-15

CSCCCNC(=O)c1csc([C@@H](CSC)NC(=O)CCNC(=O)[C@@H](NC(=O)OCC(Br)(Br)Br)C(C)O)n1 (stereo not given in full)
inactive: NCI-H226 > 100 µM | SF-539 > 100 µM | IGROV-1 > 100 µM | MOLT-4 > 100 µM | NCI-H522 > 100 µM | COLO 205 > 100 µM | CAKI-1 > 100 µM | U-251 > 100 µM | NCI/ADR-RES > 100 µM | 786-0 > 100 µM | SW-620 > 100 µM | CCRF-CEM > 100 µM | UACC-257 > 100 µM | SF-268 > 100 µM | MDA-MB-435 > 100 µM | MCF7 94.2 µM | HOP-62 > 100 µM | NCI-H23 > 100 µM | SF-295 > 100 µM
> 100 µM: HCT-15

COc1cc(-c2cc(O)c(-c3ccc4ccccc4n3)c(O)n2)cc(OC)c1OC
29 µM: HCT-15
inactive: NCI-H226 > 48.3 µM | SF-539 30.7 µM | IGROV-1 43.5 µM | MOLT-4 6.97 µM | NCI-H522 13.2 µM | COLO 205 38.7 µM | CAKI-1 > 44 µM | U-251 22.9 µM | NCI/ADR-RES 26.9 µM | 786-0 34.4 µM | SW-620 19.1 µM | CCRF-CEM 10.3 µM | UACC-257 54.3 µM | SF-268 43 µM | MDA-MB-435 2.07 µM | MCF7 39.1 µM | HOP-62 53.3 µM | NCI-H23 46.2 µM | SF-295 21.9 µM
